This data set in a line: in vitro. The settings on record: human, hela cells, % viability.

For 79 molecules, viability results are on record in paper PMC12040169 (PLOS Biology, 2025).

In general, viability refers to a read-out of living cells in per cent, often relative to untreated cells.

Molecules are shown by their SMILES.

Consider `O=C(COc1ccc(S(=O)(=O)N2CCCCC2)cc1)N1CCN(Cc2ccccc2)CC1` [CBK269144], for which the viability at 28.5 h, 10 µM turned out to be 87.1%. As for `O=C(COc1ccccc1)n1nc(-c2ccco2)nc1NCc1cccs1` [CBK269145], the viability at 28.5 h, 10 µM was 85.7%. For the molecule `O=C(c1cccs1)n1nc(NCc2ccccc2)nc1NCc1ccccc1` [CBK269149], the viability at 28.5 h, 10 µM came out at 107%. In the case of `O=S(=O)(N1CCCCCC1)N1CCN(S(=O)(=O)N2CCOCC2)CC1` [CBK269152], the viability at 28.5 h, 10 µM amounted to 100%. Regarding `Cc1cc(C)c(C)c(S(=O)(=O)NCCOCCO)c1C` [CBK269153], the viability at 28.5 h, 10 µM turned out to be 88.6%. Regarding `COc1ccc(CCN2C(=O)c3[nH]nc(-c4cc(C)c(C)cc4O)c3C2c2ccccc2)cc1` (stereo not shown) [CBK269154], the viability at 28.5 h, 10 µM was determined as 106%. Turning to `O=C(CSCc1c(F)cccc1Cl)NCc1ccccc1Cl` [CBK269155], the viability at 28.5 h, 10 µM is 91.6%. For the molecule `O=C(O)CCCNC(=O)C(O)(c1ccccc1)c1ccccc1` [CBK269156], for the setting “bulk resorufin, single well”, the viability at 28.5 h, 10 µM came out at 95.5%. Regarding `O=C(Nc1ccc(Cc2ccncc2)cc1)c1cc([N+](=O)[O-])n[nH]1` [CBK269157], the viability at 28.5 h, 10 µM was 99.4%. As to `COc1cc(CNC2CCCCC2)cc(I)c1OCC(N)=O` [CBK269158C], the viability at 28.5 h, 10 µM was 117%. On the same count and under the same terms, with `CCS(=O)(=O)Nc1ccc(C2=NN(S(=O)(=O)c3ccc(F)cc3)C(c3ccccc3C)C2)cc1` (stereo not shown) [CBK269161] the figure was 103%; with `COc1ccccc1N1CCN(CC(=O)NC2CC3CCC2C3)CC1` (stereo not shown) [CBK269162], 94.8%; with `Cc1nc2sc3c(c2c2nc(CCC(=O)O)nn12)CC(C)(C)OC3` [CBK269168], 81.4%.

For the molecule `Cc1cc(C)c2c(CC(=O)NNC(=O)COc3ccccc3)coc2c1` [CBK269169], the viability at 28.5 h, 10 µM worked out at 94.1%.

On to `O=S(=O)(Cc1ccccc1Cl)NCCN1CCOCC1` [CBK269171], for which the viability at 28.5 h, 10 µM worked out at 102%. Consider `Cc1ccccc1C(=O)NCCCNC(=O)c1ccccn1` [CBK269172], for which the viability at 28.5 h, 10 µM amounted to 96.7%.

On to `CC(=O)N1CCc2c(sc3nc(N)c(C(=O)NCCc4ccc(F)cc4)c(C(F)(F)F)c23)C1` [CBK269176], for which the viability at 28.5 h, 10 µM is 94.4%. With `COc1ccc(OCC(=O)Nc2ccccc2N2CCN(S(C)(=O)=O)CC2)cc1` [CBK269177], the viability at 28.5 h, 10 µM is 89.9%. As for `Cc1cccc2cc(CN(Cc3ccco3)C(=O)C3CCCCC3)c(O)nc12` [CBK269178], the viability at 28.5 h, 10 µM stood at 102%. Regarding `Cc1ccc(C(=O)O)cc1NC(=O)c1ncn(-c2ccccc2)n1` [CBK269181], the viability at 28.5 h, 10 µM came out at 114%.

As to `CC(=O)c1ccc(NC(=O)CSc2nnc(-c3ccncc3)s2)cc1` [CBK269183], the viability at 28.5 h, 10 µM is 85.1%. Same read-out and setting: with `CC1CCCCN1Cc1nc2c(c(=O)n(C)c(=O)n2C)n1Cc1ccc(Br)cc1` (stereo not shown) [CBK269184] the figure was 95.3%. `COc1cc(S(=O)(=O)NCCCn2ccnc2)ccc1Cl` [CBK269186]: the viability at 28.5 h, 10 µM turned out to be 89.1%. The same measure, in the same setting: with `Cc1ccc(C(=O)C2=C(O)C(=O)N(CCCN3CCOCC3)C2c2ccccn2)o1` (stereo not shown) [CBK269187] the figure was 89.7%. On the same count and under the same terms, with `COc1ccc(NC(=O)CN2CCN(c3ccccc3OC)CC2)c([N+](=O)[O-])c1` [CBK269188] the figure was 94.7%; with `Cn1c(=O)c2c(nc(CN3CCOCC3)n2CC(=O)c2ccccc2)n(C)c1=O` [CBK269195], 93.2%. `O=C(NCC(O)c1ccccc1)c1ccc(Cl)c(S(=O)(=O)N2CCCCC2)c1` (stereo not shown) [CBK269197]: the viability at 28.5 h, 10 µM was 81%. Turning to `Cc1ccccc1Cn1c(CN2CCCCC2C)nc2c1c(=O)n(C)c(=O)n2C` (stereo not shown) [CBK269199], the viability at 28.5 h, 10 µM is 91.2%. Take `CC(SCC(=O)Nc1ccc(F)cc1)c1nc2ccccc2c(=O)[nH]1` (stereo not shown) [CBK269200]: the viability at 28.5 h, 10 µM stood at 105%. `O=C1NC2CCCCC2NC1CC(=O)N1CCN(C(c2ccccc2)c2ccccc2)CC1` (stereo not shown) [CBK269201]: the viability at 28.5 h, 10 µM came to 88.7%. `Cn1c(=O)n(CCN2CCOCC2)c(=O)c2c1nc1n2CCN1c1ccc(Oc2ccccc2)cc1` [CBK269202]: the viability at 28.5 h, 10 µM was determined as 91.4%. Same read-out and setting: the value for `CCOC(=O)CC(=O)COc1nc2cc3c(nc2o1)CCCC3` [CBK269204] was 89.8%. Turning to `CC(=O)c1ccc(NC(=O)CSc2nnc(-c3ccc4ccccc4n3)s2)cc1` [CBK269205], the viability at 28.5 h, 10 µM came out at 97.6%. The same measure, in the same setting: the value for `Cc1ccccc1CSCC(=O)NCCN1CCOCC1` [CBK269207] was 103%. For `O=C(O)c1ccc(CSc2nnc(Cc3ccccc3)[nH]2)o1` [CBK269208], the viability at 28.5 h, 10 µM amounted to 99.3%. On to `N#Cc1cc(SCCC(=O)O)c(N2CCOCC2)cc1C#N` [CBK269212], for which the viability at 28.5 h, 10 µM came to 96.3%. Consider `CC(Sc1ccccc1)C(=O)NCCCN1CCOCC1` (stereo not shown) [CBK269214], for which the viability at 28.5 h, 10 µM was found to be 106%. Take `Cc1ccc(OCCCSc2nnc(N)[nH]2)cc1` [CBK269215A]: the viability at 28.5 h, 10 µM was 89.1%. For the molecule `Nc1c(C(=O)NCC2CCCO2)c2nc3ccccc3nc2n1C1CCCC1` (stereo not shown) [CBK269217], the viability at 28.5 h, 10 µM came out at 112%. As for `Cc1ccccc1C(=O)NCCNC(=O)c1cccnc1` [CBK269222], the viability at 28.5 h, 10 µM came out at 96.2%. Same read-out and setting: the value for `COc1ccc(OC)c(S(=O)(=O)N2CCCC(C(=O)O)C2)c1` (stereo not shown) [CBK269225] was 95%. Regarding `CCOc1ccc(-c2noc(CCC(=O)NC)n2)cc1OC` [CBK269226], the viability at 28.5 h, 10 µM came out at 86.4%. Turning to `O=C(Cc1ccccc1)Nc1ccccc1C(=O)NCc1cccnc1` [CBK269228], the viability at 28.5 h, 10 µM came out at 96.1%.

For the molecule `CC(Sc1nc(N(C)C)nc(N2CCOCC2)n1)C(=O)Nc1ccc(Cl)c(Cl)c1` (stereo not shown) [CBK269229], the viability at 28.5 h, 10 µM stood at 110%. Take `Cc1ccc2nsnc2c1NC(=O)CN1CCN(c2ccc(F)cc2)CC1` [CBK269231]: the viability at 28.5 h, 10 µM came out at 98.9%.

Take `Cn1c(=O)[nH]c(=O)c2c1nc(SCCN1CCOCC1)n2CCCc1ccccc1` [CBK269234]: the viability at 28.5 h, 10 µM is 95.5%. Regarding `Cc1ccc2[nH]cc(CCNC(=O)c3cccc(NC(=O)c4ccccc4)c3)c2c1` [CBK269235], the viability at 28.5 h, 10 µM was 86.6%. With `CCN1CCN(Cc2nc3c(c(=O)n(C)c(=O)n3C)n2Cc2c(F)cccc2Cl)CC1` [CBK269236], the viability at 28.5 h, 10 µM amounted to 108%. Regarding `O=S(=O)(N1CCCCCC1)n1ccnc1` [CBK269241], the viability at 28.5 h, 10 µM is 92.1%. The same measure, in the same setting: the value for `CCOc1ccc(CN2CCNC(=O)C2CC(=O)O)cc1` (stereo not shown) [CBK269242] was 107%; that for `CCNc1nc2c(c(=O)[nH]c(=O)n2C)n1CCCc1ccccc1` [CBK269243] was 94.6%. As for `O=C(CCNS(=O)(=O)c1ccc(Cl)cc1)Nc1ccncc1` [CBK269244], the viability at 28.5 h, 10 µM worked out at 99.4%. As to `O=C(O)c1ccc2c(c1)C(=O)N(CCCN1CCOCC1)C2=O` [CBK269245], the viability at 28.5 h, 10 µM was determined as 102%. The same measure, in the same setting: the value for `O=C(CN1C(=O)c2ccccc2C1=O)Nc1ccccc1C(=O)N1CCN(c2ccccc2)CC1` [CBK269251] was 118%; that for `Cc1c(Cl)cccc1N1CCN(S(=O)(=O)CC23CCC(CC2=O)C3(C)C)CC1` (stereo not shown) [CBK269257] was 96.1%; that for `NC1=C(c2ccccc2)C(=O)CN1NC(=O)COc1ccccc1-c1ccccc1` [CBK269258] was 95.1%. On to `Cc1sc2nc(N)c(C(=O)NC(C)C)cc2c1C` [CBK269259], for which the viability at 28.5 h, 10 µM was 115%. As to `O=C(O)c1cccc(-n2c(S)nnc2-c2ccncc2)c1` [CBK269260], the viability at 28.5 h, 10 µM is 105%. As for `CCN(CC)CCNC(=O)c1cc(O)nc2ccccc12` [CBK269261], the viability at 28.5 h, 10 µM worked out at 99.6%. With `O=C(O)COc1c(-c2ccco2)oc2ccccc2c1=O` [CBK269262], the viability at 28.5 h, 10 µM worked out at 96.9%. The same measure, in the same setting: with `CCN1CCN(C(=O)CN(Cc2ccc(Cl)cc2)S(C)(=O)=O)CC1` [CBK269263] the figure was 82.8%; with `O=C(O)CSc1nc2c(-c3ccco3)c3c(nc2o1)CCCC3` [CBK269266], 104%; with `Cc1ccc(NS(=O)(=O)c2cc(C(=O)N3CCN(C)CC3)ccc2C)cc1C` [CBK269268], 91.2%. With `C/C=C/c1ccc(OCCCn2nnc3ccccc32)c(OC)c1` [CBK269271], the viability at 28.5 h, 10 µM was determined as 86%. In the case of `Cc1nonc1NC(=O)CSc1nc2ccccc2[nH]1` [CBK269273], the viability at 28.5 h, 10 µM came out at 101%.

`COc1ccc(S(=O)(=O)NC(C)C(=O)NCc2ccccn2)cc1Cl` (stereo not shown) [CBK269275]: the viability at 28.5 h, 10 µM turned out to be 101%. In the case of `Cn1c(=O)c2c(nc(CN3CCN(C(=O)c4ccco4)CC3)n2CCc2ccccc2)n(C)c1=O` [CBK269278], the viability at 28.5 h, 10 µM was determined as 80.6%. For the molecule `O=S(=O)(NN1CCOCC1)c1cc(Cl)cc(Cl)c1O` [CBK269279], the viability at 28.5 h, 10 µM stood at 89.8%. Take `O=C(NCc1ccccc1)c1ccccc1NC(=O)C1CCCCC1C(=O)O` (stereo not shown) [CBK269283]: the viability at 28.5 h, 10 µM came to 92%.

For the molecule `Cc1cc(Br)ccc1NC(=O)C(=O)NC1CC1` [CBK269284], the viability at 28.5 h, 10 µM is 83.6%.

Take `O=C(O)c1cc(-n2c(S)nnc2-c2cnccn2)ccc1Cl` [CBK269285]: the viability at 28.5 h, 10 µM amounted to 86.2%. Consider `CN(C)CCN1C(=O)C2C3c4ccccc4C([N+](=O)[O-])(c4ccccc43)C2C1=O` (stereo not shown) [CBK269286], for which the viability at 28.5 h, 10 µM was determined as 81.4%.

Take `Cc1cccc(OCC(=O)Nc2ccc(-c3nc4ncccc4o3)cc2C)c1` [CBK269287]: the viability at 28.5 h, 10 µM amounted to 87.3%. `Cc1nnc(SCCn2c(N3CCCCC3)nc3c2c(=O)n(C)c(=O)n3C)s1` [CBK269288]: the viability at 28.5 h, 10 µM was determined as 103%. Regarding `COc1ccc(OC(=O)COc2nc3c(C)cc(C)nc3[nH]2)cc1` [CBK269290], the viability at 28.5 h, 10 µM stood at 106%. On the same count and under the same terms, the value for `CC1CCN(Cc2nc3c(c(=O)n(C)c(=O)n3C)n2CCN2CCOCC2)CC1` [CBK269291] was 108%.

Take `O=C1CC(c2ccco2)Cc2c1cnn2-c1nc2ccccc2s1` (stereo not shown) [CBK269292]: the viability at 28.5 h, 10 µM was 81.4%. As for `CCN(CC(=O)N1CCN(C)CC1)S(=O)(=O)c1cc(Cl)ccc1Cl` [CBK269297], the viability at 28.5 h, 10 µM was determined as 104%. As for `CC1CN(Cc2nc3c(c(=O)n(C)c(=O)n3C)n2CCCO)CC(C)O1` (stereo not shown) [CBK269298], the viability at 28.5 h, 10 µM was 99%.
